In the supplement of paper PMC10307832:

Assays:
Assay in all cases: relative viability (nuclei count vs DMSO), 5 days (fraction); higher = more cells survive
[1] = compound: CN(C)C/C=C/C(=O)Nc1cc2c(Nc3ccc(F)c(Cl)c3)ncnc2cc1O[C@H]1CCOC1 [Afatinib] + O=C(c1cc(Cc2n[nH]c(=O)c3ccccc23)ccc1F)N1CCN(C(=O)C2CC2)CC1 [Olaparib] (partner 8 µM)
Outline: (§1)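 Relative viability is defined as nuclei in treated wells over nuclei in vehicle wells. Duplicate plates were run and medians reported. Lung cancer cell lines in 1536-well plates were dosed by pin tool one day after seeding, with one drug or with a fixed anchor-drug dose plus five library-drug doses (not always all listed) in √10 steps, and nuclei were counted after 5 days.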

[2] = compound: CN(C)C/C=C/C(=O)Nc1cc2c(Nc3ccc(F)c(Cl)c3)ncnc2cc1O[C@H]1CCOC1 [Afatinib] + NC(=O)Nc1cc(-c2cccc(F)c2)sc1C(=O)N[C@H]1CCCNC1 [AZD7762] (partner 0.2 µM)
Outline: as §1

[3] = compound: CN(C)C/C=C/C(=O)Nc1cc2c(Nc3ccc(F)c(Cl)c3)ncnc2cc1O[C@H]1CCOC1 [Afatinib] + CS(=O)(=O)CCNCc1ccc(-c2ccc3ncnc(Nc4ccc(OCc5cccc(F)c5)c(Cl)c4)c3c2)o1 [Lapatinib] (partner 2 µM)
Outline: as §1

[4] = compound: CN(C)C/C=C/C(=O)Nc1cc2c(Nc3ccc(F)c(Cl)c3)ncnc2cc1O[C@H]1CCOC1 [Afatinib] + Nc1ncn([C@H]2C[C@H](O)[C@@H](CO)O2)c(=O)n1 [Decitabine] (partner 2 µM)
Outline: as §1

Row | Cell Line | relative viability ([1]; first compound 0.005 µM) | relative viability ([1]; first compound 0.01581 µM) | relative viability ([1]; first compound 0.05 µM) | relative viability ([1]; first compound 0.1581 µM) | relative viability ([1]; first compound 0.5 µM) | relative viability ([2]; first compound 0.005 µM) | relative viability ([2]; first compound 0.01581 µM) | relative viability ([2]; first compound 0.05 µM) | relative viability ([2]; first compound 0.1581 µM) | relative viability ([2]; first compound 0.5 µM) | relative viability ([3]; first compound 0.005 µM) | relative viability ([3]; first compound 0.01581 µM) | relative viability ([3]; first compound 0.05 µM) | relative viability ([3]; first compound 0.1581 µM) | relative viability ([3]; first compound 0.5 µM) | relative viability ([4]; first compound 0.005 µM) | relative viability ([4]; first compound 0.01581 µM) | relative viability ([4]; first compound 0.05 µM) | relative viability ([4]; first compound 0.1581 µM) | relative viability ([4]; first compound 0.5 µM)
1 | HCC-827 | 0.135 | 0.0842 | 0.145 | 0.158 | 0.142 | 0.11 | 0.119 | 0.125 | 0.121 | 0.0942 | 0.0458 | 0.174 | 0.186 | 0.186 | 0.198 | 0.162 | 0.155 | 0.178 | 0.174 | 0.161
2 | HOP-62 | 0.624 | 0.329 | 0.606 | 0.439 | 0.423 | 0.561 | 0.512 | 0.571 | 0.64 | 0.471 | 1.12 | 1.12 | 1.11 | 1.03 | 1.09 | 0.252 | 0.181 | 0.238 | 0.193 | 0.219
3 | IA-LM | 1.07 | 0.821 | 0.947 | 0.761 | 0.805 | – | – | – | – | – | 0.935 | 0.867 | 0.753 | 0.828 | 0.708 | – | – | – | – | –
4 | LC-2-ad | 0.752 | 0.754 | 0.724 | 0.707 | 0.701 | 0.782 | 0.713 | 0.559 | 0.411 | 0.46 | 1.07 | 0.991 | 1.07 | 0.961 | 0.925 | 0.769 | 0.866 | 0.786 | 0.694 | 0.767
5 | LCLC-103H | 0.743 | 0.744 | 0.764 | 0.682 | 0.773 | 0.758 | 0.814 | 0.758 | 0.781 | 0.78 | – | – | – | – | – | 0.714 | 0.774 | 0.727 | 0.704 | 0.718
6 | NCI-H441 | 0.491 | 0.521 | 0.649 | 0.441 | 0.512 | 1.56 | 0.993 | 1.09 | 1.16 | 1.1 | – | – | – | – | – | 0.241 | 0.233 | 0.225 | 0.277 | 0.229
7 | NCI-H520 | 0.313 | 0.32 | 0.329 | 0.365 | 0.368 | – | – | – | – | – | 0.857 | 0.78 | 0.918 | 0.903 | 0.687 | 0.539 | 0.454 | 0.45 | 0.483 | 0.413
8 | NCI-H522 | 0.573 | 0.726 | 0.639 | 0.532 | 0.464 | 0.76 | 0.812 | 0.817 | 0.767 | 0.748 | – | – | – | – | – | 0.644 | 0.672 | 0.736 | 0.655 | 0.581
9 | NCI-H661 | 0.811 | 0.732 | 0.638 | 0.589 | 0.637 | – | – | – | – | – | 0.682 | 0.469 | 0.573 | 0.454 | 0.443 | 0.502 | 0.428 | 0.44 | 0.391 | 0.401
10 | NCI-H1563 | – | – | – | – | – | – | – | – | – | – | 0.965 | 0.874 | 1.08 | 1.04 | 0.854 | – | – | – | – | –
11 | NCI-H1648 | 0.978 | 0.617 | 0.391 | 0.323 | 0.469 | 0.735 | 0.596 | 0.531 | 0.58 | 0.546 | – | – | – | – | – | 0.551 | 0.419 | 0.378 | 0.417 | 0.34
12 | NCI-H1650 | 0.784 | 0.708 | 0.804 | 0.712 | 0.547 | – | – | – | – | – | 0.903 | – | 1.09 | 0.772 | 0.598 | 0.383 | 0.403 | 0.426 | 0.503 | 0.368
13 | NCI-H1703 | 0.538 | – | 0.411 | 0.297 | 0.445 | 0.13 | 0.141 | 0.119 | 0.121 | 0.109 | 1.76 | 1.02 | 1.08 | 0.921 | 0.753 | – | – | – | – | –
14 | NCI-H2009 | 0.578 | 0.699 | 0.743 | 0.648 | 0.665 | – | – | – | – | – | 0.964 | 0.934 | 1.07 | 0.995 | 1.01 | 0.398 | 0.383 | 0.357 | 0.366 | 0.358
15 | NCI-H2023 | 0.514 | 0.444 | 0.489 | 0.464 | 0.481 | – | – | – | – | – | 0.744 | 0.853 | 0.896 | 0.809 | 0.964 | 0.234 | 0.197 | 0.211 | 0.2 | 0.234
16 | NCI-H2228 | 0.935 | 0.518 | 0.704 | 0.506 | 0.579 | – | – | – | – | – | 1.29 | 1.01 | 0.958 | – | 1.03 | – | – | – | – | –
17 | NCI-H2342 | 0.375 | 0.457 | 0.411 | 0.347 | 0.406 | 0.562 | 0.488 | 0.477 | 0.434 | 0.474 | – | – | – | – | – | 0.706 | 0.698 | 0.718 | 0.569 | 0.573
18 | SK-LU-1 | 0.49 | 0.447 | 0.414 | 0.492 | 0.452 | – | – | – | – | – | 1.33 | 0.89 | 0.803 | 0.941 | 0.915 | 0.641 | 0.674 | 0.661 | 0.621 | 0.619
19 | SK-MES-1 | 0.682 | 0.489 | 0.325 | 0.334 | 0.404 | – | – | – | – | – | 0.423 | 0.393 | 0.459 | 0.444 | 0.467 | 0.27 | 0.322 | 0.309 | 0.312 | 0.316
20 | SW 900 | 0.757 | 0.726 | 0.89 | 0.664 | 0.77 | 0.48 | 0.546 | 0.615 | 0.501 | 0.548 | – | – | – | – | – | 0.502 | 0.334 | 0.378 | 0.398 | 0.443
21 | SW 1573 | 0.624 | 0.485 | 0.486 | 0.421 | 0.408 | – | – | – | – | – | 1.03 | 1.09 | 1.14 | 1.07 | 1.27 | 0.434 | 0.422 | 0.542 | 0.497 | 0.528
22 | UMC-11 | 0.386 | 0.402 | 0.405 | 0.368 | 0.394 | – | – | – | – | – | 1.07 | 0.919 | 0.846 | 0.802 | 1 | 0.664 | 0.602 | 0.584 | 0.554 | 0.63
